Source: US20240246916A1, “7-NITRO-8-HYDROXYQUINOLINE DERIVATIVES, PREPARATION METHOD THEREFORE AND MEDICAL USE THEREOF” (Jiangsu Yahong Meditech Co., Ltd., priority 2021, published 2024)
≈ marks a conversion by molar mass, not a printed value.

Experiments:
Assay type in all cases: cell-based
[1] = tested on: Endothelial cell line HUVEC; assay: Inhibitory activity on cells, CellTiter-Glo viability, HUVEC; conditions: Homo sapiens, 72 hours treatment
Procedure: (§1) HUVEC (purchased from Allcells Biological Technology (Shanghai) Co., Ltd.); UM-UC-3 (ATCC); LNCaP (ATCC); RM-1 (purchased from Nanjing Cobioer Biosciences Co., Ltd.) (1) On the first day, the cells were seeded in a 96-well plate, and the previous medium was poured off. 5 mL of DPBS was added to wash the cells, and then removed by a pipette and discarded. Then, 1 mL of trypsin (0.25%) was added, and the plate was placed in a cell culture incubator at 37 °C, 5% CO2 for digestion, and taken out after about 2 to 5 minutes. New corresponding medium was added, and pipetted to resuspend the cells evenly, and the cells were then counted with an automated cell counter. Regarding HUVEC, the medium used was endothelial cell complete medium; regarding UM-UC-3, the medium used was 89 v % EMEM+10 v % fetal bovine serum+1 v % penicillin-streptomycin double anti-body; regarding LNcaP, the medium used was 89 v % RPM11640+10 v % fetal bovine serum+1 v % penicillin-streptomycin double anti-body; and regarding RM1, the medium used was 89 v % DMEM+10 v % fetal bovine serum+1 v % penicillin-streptomycin double anti-body. (2) HUVEC cells were seeded in columns 1 to 11 of a 96-well plate (Corning, Cat. No. 3610) at a density of 2000 cells per well in 100 μL of medium, and the medium free of cell was added to the wells of column 12. The other three types of cells were also seeded, wherein UM-UC-3 and RM-1 cells were seeded at a density of 3000 cells per well, and LNCap cells were seeded at a density of 5000 cells per well. Then, the plate was placed in an incubator at 37° C., 5% CO2 for 24 hours. (3) On the second day, the compounds of the present invention and the reference drug nitroxoline (obtained according to the preparation method disclosed in the prior art) were diluted in gradient (2.5 folds, started at 100 μmol) to obtain 8 dose points (there were a total of 8 columns of wells; the first column of wells had the highest concentration, the concentration decreased in turn, and the last column of wells had the lowest concentration). 10 μL of the compound diluted in gradient was added to the 100 μL of cells in column 1 to column 10 with an 8-channel pipette. 10 μL of the corresponding medium containing 0.33 v % DMSO was added to column 11 and column 12. The plate was incubated in an incubator at 37° C., 5% CO2 for 72 hours (note: column 11 was used as MAX well with cells and no compounds; and column 12 was used as MIN well with no cells and no compounds). (4) After treating with the compounds of the present invention for 72 hours, the cell viability detection reagents in the above CellTiter-Glo® assay kit were added to the 96-well plate at 50 μL per well according to the instructions. The plate was shaken on a shaker in the dark for 5 to 10 minutes, and then the cell activity was determined by a multifunctional microplate reader. Finally, the growth inhibition of the compounds of the present invention on the cells was plotted by XLFIT 5.3 software, and the IC50 values of the compounds of the present invention were calculated.

[2] = tested on: Escherichia coli (carbapenem-resistant clinical isolate; ATCC25922); assay: MIC by micro broth dilution (CLSI), Escherichia coli; conditions: Escherichia coli; for MIC50 / MIC90: ATCC25922, Clinical strain; for MIC50: read-out: MIC50; for MIC90: read-out: MIC90; for MIC: Standard strain ATCC25922, read-out: MIC
Procedure, shortened: (§2)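 First, DMSO solutions were diluted over 128 to 0.06 mg/L in CAMHB; next, overnight cultures adjusted to 0.5 McFarland and diluted 100-fold were added to give 10^5 CFU/mL; then incubation ran 20 hours at 35±2° C, with CLSI 2019 M100 used for interpretation.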

[3] = tested on: Prostate cancer cell line LNcaP; assay: Inhibitory activity on cancer cells, CellTiter-Glo viability, LNcaP; conditions: Homo sapiens, 72 hours treatment
Procedure: as §1

[4] = tested on: Bladder cancer cell line UM-UC-3; assay: Inhibitory activity on cancer cells, CellTiter-Glo viability, UM-UC-3; conditions: Homo sapiens, UMUC3, 72 hours treatment
Procedure: as §1

[5] = tested on: Staphylococcus aureus (methicillin-resistant and sensitive clinical isolates; ATCC29213); assay: MIC by micro broth dilution (CLSI), Staphylococcus aureus; conditions: for MIC50 / MIC90: Clinical strain; for MIC50: read-out: MIC50; for MIC90: read-out: MIC90; for MIC: Standard strain ATCC29213, read-out: MIC
Procedure, shortened: as §2

[6] = tested on: Acinetobacter baumannii (carbapenem-resistant clinical isolates; ATCC19606); assay: MIC by micro broth dilution (CLSI), Acinetobacter baumannii; conditions: Acinetobacter baumannii; for MIC50 / MIC90: ATCC19606, Clinical strain; for MIC50: read-out: MIC50; for MIC90: read-out: MIC90; for MIC: Standard strain ATCC19606, read-out: MIC
Procedure, shortened: as §2

[7] = tested on: Mouse prostate cancer cell line RM1; assay: Inhibitory activity on cancer cells, CellTiter-Glo viability, RM1; conditions: 72 hours treatment
Procedure: as §1

Row | MIC50 [2] [µg/mL] | MIC90 [2] [µg/mL] | MIC [2] [µg/mL] | IC50 [3] [µM] | IC50 [4] [µM] | MIC50 [5] [µg/mL] | MIC90 [5] [µg/mL] | MIC [5] [µg/mL] | MIC50 [6] [µg/mL] | MIC90 [6] [µg/mL] | MIC [6] [µg/mL] | IC50 [7] [µM] | SMILES | IC50 [1] [µM]
1 | > 128 | > 128 | > 128 | 0.96 | 0.94 | > 128 | > 128 | > 128 | > 128 | > 128 | > 128 | 0.46 | COC(=O)N1CCN(c2ccnc3c(O)c([N+](=O)[O-])cc(Cl)c23)CC1 [Example 31, Methyl 4-(5-chloro-8-hydroxy-7-nitroquinolin-4-yl)-piperazine-1-carboxylate] | 1.63
2 | > 128 | > 128 | > 128 | 0.96 | 2.42 | 8 (≈ 26 µM) | 8 (≈ 26 µM) | 8 (≈ 26 µM) | > 128 | > 128 | > 128 | 2.81 | O=[N+]([O-])c1cc(Cl)c2c(N3CCCCC3)ccnc2c1O [Example 36, 5-Chloro-7-nitro-4-piperidinylquinolin-8-ol] | 1.48
3 | > 128 | > 128 | > 128 | 40.4 | > 50 | 128 (≈ 415 µM) | > 128 | 128 (≈ 415 µM) | > 128 | > 128 | > 128 | > 50 | O=[N+]([O-])c1cc(Cl)c2c(N3CCNCC3)ccnc2c1O [Example 37, 5-Chloro-7-nitro-4-(piperazin-1-yl)quinolin-8-ol] | > 50
4 | > 128 | > 128 | 128 (≈ 379 µM) | 1.87 | 6.72 | 8 (≈ 23.7 µM) | 16 (≈ 47.4 µM) | 8 (≈ 23.7 µM) | 128 (≈ 379 µM) | 128 (≈ 379 µM) | 128 (≈ 379 µM) | 3 | COC1CCN(c2ccnc3c(O)c([N+](=O)[O-])cc(Cl)c23)CC1 [Example 38, 5-Chloro-4-(4-methoxypiperidin-1-yl)-7-nitroquinolin-8-ol] | 2.36
5 | 128 (≈ 397 µM) | > 128 | 64 (≈ 198 µM) | 12.6 | 24.6 | 32 (≈ 99.1 µM) | 32 (≈ 99.1 µM) | 32 (≈ 99.1 µM) | 128 (≈ 397 µM) | > 128 | > 128 | 11.5 | CN1CCN(c2ccnc3c(O)c([N+](=O)[O-])cc(Cl)c23)CC1 [Example 40] | 19.1
6 | > 128 | > 128 | 128 (≈ 436 µM) | 17.4 | 42 | 32 (≈ 109 µM) | 32 (≈ 109 µM) | 32 (≈ 109 µM) | > 128 | > 128 | 128 (≈ 436 µM) | 25.4 | O=[N+]([O-])c1cc(Cl)c2c(N3CCCC3)ccnc2c1O [Example 42, 5-Chloro-7-nitro-4-(pyrrolidin-1-yl)quinolin-8-ol] | 33
7 | 128 (≈ 447 µM) | 128 (≈ 447 µM) | 128 (≈ 447 µM) | 6.26 | 12.3 | 8 (≈ 27.9 µM) | 8 (≈ 27.9 µM) | 8 (≈ 27.9 µM) | 128 (≈ 447 µM) | 128 (≈ 447 µM) | 128 (≈ 447 µM) | 10.6 | O=[N+]([O-])c1cc(Cl)c2c(OCCF)ccnc2c1O [Example 43, 5-Chloro-4-(2-fluoroethoxy)-7-nitroquinolin-8-ol] | 7.54

Second part, the compound before the results:

Row | SMILES | MIC50 [2] [µg/mL] | MIC90 [2] [µg/mL] | MIC [2] [µg/mL] | IC50 [3] [µM] | IC50 [4] [µM] | MIC50 [5] [µg/mL] | MIC90 [5] [µg/mL] | MIC [5] [µg/mL] | MIC50 [6] [µg/mL] | MIC90 [6] [µg/mL] | MIC [6] [µg/mL] | IC50 [7] [µM] | IC50 [1] [µM]
8 | O=[N+]([O-])c1ccc2c(C3CCCCC3)ccnc2c1O [Example 32, 4-Cyclohexyl-7-nitroquinolin-8-ol] | 64 (≈ 235 µM) | 64 (≈ 235 µM) | 64 (≈ 235 µM) | 0.23 | 1.09 | 1 (≈ 3.67 µM) | 1 (≈ 3.67 µM) | 1 (≈ 3.67 µM) | 32 (≈ 118 µM) | 32 (≈ 118 µM) | 32 (≈ 118 µM) | 0.6 | 0.89
9 | CC(=O)N1CCN(c2ccnc3c(O)c([N+](=O)[O-])cc(Cl)c23)CC1 [Example 33, 4-(5-Chloro-8-hydroxy-7-nitroquinolin-4-yl)-1-acetylpiperazine] | > 128 | > 128 | > 128 | 15 | 50.5 | 32 (≈ 91.2 µM) | 32 (≈ 91.2 µM) | 32 (≈ 91.2 µM) | > 128 | > 128 | > 128 | 18 | 16.9
10 | COc1ccnc2c(O)c([N+](=O)[O-])cc(Cl)c12 [Example 34, 5-Chloro-4-methoxy-7-nitroquinolin-8-ol] | 8 (≈ 31.4 µM) | 32 (≈ 126 µM) | 8 (≈ 31.4 µM) | 6.78 | 14 | 4 (≈ 15.7 µM) | 8 (≈ 31.4 µM) | 4 (≈ 15.7 µM) | 32 (≈ 126 µM) | 32 (≈ 126 µM) | 32 (≈ 126 µM) | 12.7 | 6.44
11 | CN(C)C(=O)N1CCN(c2ccnc3c(O)c([N+](=O)[O-])cc(Cl)c23)CC1 [Example 35, 4-(5-Chloro-8-hydroxy-7-nitroquinolin-4-yl)-N,N-dimethylpiperazine-1-carboxamide] | > 128 | > 128 | > 128 | 31.2 | 49.7 | > 128 | > 128 | > 128 | > 128 | > 128 | > 128 | > 50 | 27
12 | O=[N+]([O-])c1cc(Cl)c2c(N3CCC(C(F)(F)F)CC3)ccnc2c1O [Example 39, 5-Chloro-7-nitro-4-(4-(trifluoromethyl)piperidin-1-yl)quinolin-8-ol] | > 128 | > 128 | > 128 | 0.43 | 0.95 | 4 (≈ 10.6 µM) | 8 (≈ 21.3 µM) | 4 (≈ 10.6 µM) | > 128 | > 128 | > 128 | 1.25 | 1.11
13 | CC1(C)CCN(c2ccnc3c(O)c([N+](=O)[O-])cc(Cl)c23)CC1 [Example 41, 5-Chloro-4-(4,4-dimethylpiperidin-1-yl)-7-nitroquinolin-8-ol] | > 128 | > 128 | > 128 | 0.48 | 1.03 | 32 (≈ 95.3 µM) | 32 (≈ 95.3 µM) | 32 (≈ 95.3 µM) | > 128 | > 128 | > 128 | 2.02 | 2.02
14 | CNC(=O)N1CCN(c2ccnc3c(O)c([N+](=O)[O-])cc(Cl)c23)CC1 [Example 44, 4-(5-Chloro-8-hydroxy-7-nitroquinolin-4-yl)-N-methylpiperazine-1-carboxamide] | > 128 | > 128 | > 128 | > 50 | > 50 | 32 (≈ 87.5 µM) | 32 (≈ 87.5 µM) | 32 (≈ 87.5 µM) | > 128 | > 128 | > 128 | > 50 | > 50
